The source of these data is ChEMBL document CHEMBL1143815, “Spread of extended-spectrum beta-lactamase CTX-M-producing escherichia coli clinical isolates in community and nosocomial environments in Portugal” (2007).

Type in all cases: functional
Test [1] relates to Escherichia coli. In words: Antibacterial activity against CTX-M group 9 enzyme producing Escherichia coli isolates by broth microdilution method.
Test [2] relates to Escherichia coli. In words: Antibacterial activity against CTX-M group 1 enzyme producing Escherichia coli isolates assessed as percent nonsusceptible isolates by broth microdilution method.
Test [3] has as its system Escherichia coli. Briefly: Antibacterial activity against CTX-M group 1 enzyme producing Escherichia coli isolates by broth microdilution method.
The test system of test [4] is Escherichia coli. Briefly: Antibacterial activity against CTX-M group 9 enzyme producing Escherichia coli isolates assessed as percent nonsusceptible isolates by broth microdilution method.
Test [5] has as its system Escherichia coli. In words: Antibacterial activity against Escherichia coli INSRA5905 isolates expressing CTX-M-15 and TEM-1B enzymes by agar dilution method.
In test [6] the test system is Escherichia coli. In words: Antibacterial activity against Escherichia coli INSRA5924 isolates expressing CTX-M-32 and TEM-1B enzymes by agar dilution method.
Test [7] concerns Escherichia coli. In words: Antibacterial activity against Escherichia coli DH5 alpha isolates by agar dilution method.
For test [8], the system named is Escherichia coli. In words: Antibacterial activity against Escherichia coli DH5 alpha-URA5905 isolates expressing CTX-M-15 and TEM-1B enzymes by agar dilution method.
Test [9] concerns Escherichia coli. Briefly: Antibacterial activity against Escherichia coli DH5 alpha-URA5776 isolates expressing CTX-M-14 enzyme by agar dilution method.
Test [10] deals with Escherichia coli. In words: Antibacterial activity against Escherichia coli INSRA5776 isolates expressing CTX-M-14 and TEM-1B enzymes by agar dilution method.
Test [11] concerns Escherichia coli. Briefly: Antibacterial activity against Escherichia coli DH5 alpha-URA5924 isolates expressing CTX-M-32 by agar dilution method.

Values after ≈ are worked out from the molar mass of the structure shown. Where only a bound is given, the exact number is not on record here.

In the case of `CC1(C)S[C@@H]2[C@H](NC(=O)[C@H](N)c3ccccc3)C(=O)N2[C@H]1C(=O)O` [AMPICILLIN], the MIC50 with Escherichia coli [1] and in the test with Escherichia coli [3] was above 16 µg/mL in each case. The MIC90 in the test on Escherichia coli [1] and against Escherichia coli [3] was above 16 µg/mL in each case. Further, the Activity with Escherichia coli [2] and with Escherichia coli [4] was 100% each time.

As for `CCN1CCN(C(=O)N[C@@H](C(=O)N[C@@H]2C(=O)N3C(C(=O)O)=C(CSc4nnnn4C)CS[C@H]23)c2ccc(O)cc2)C(=O)C1=O` [CEFOPERAZONE], the MIC was above 512 µg/mL with Escherichia coli [5]; 256 µg/mL (≈ 396 µM) with Escherichia coli [6]; at most 0.25 µg/mL against Escherichia coli [7]; 256 µg/mL (≈ 396 µM) in the test with Escherichia coli [8]; 16 µg/mL (≈ 24.8 µM) in the test on Escherichia coli [9]; 256 µg/mL (≈ 396 µM) against Escherichia coli [10]. In addition, the MIC in the test with Escherichia coli [11] came to 64 µg/mL (≈ 99.1 µM).

`CC1(C)S[C@@H]2[C@H](NC(=O)C(C(=O)O)c3ccsc3)C(=O)N2[C@H]1C(=O)O` (single isomer, unassigned) [TICARCILLIN]: the MIC50 against Escherichia coli [1] and in the test with Escherichia coli [3] was above 64 µg/mL each time. Also, the MIC90 with Escherichia coli [1] and in the test with Escherichia coli [3] was above 64 µg/mL each time. Further, the MIC with Escherichia coli [5] is above 4100 µg/mL; in the test with Escherichia coli [6], above 4100 µg/mL; with Escherichia coli [7], 4 µg/mL (≈ 10.4 µM); in the test with Escherichia coli [8] it was above 4100 µg/mL; in the test on Escherichia coli [9], above 4100 µg/mL; in the test with Escherichia coli [10], above 4100 µg/mL. In the test on Escherichia coli [11], this compound registered an MIC above 4100 µg/mL. Also, the Activity with Escherichia coli [2] and in the test with Escherichia coli [4] was 100% each time.

Take `O=C(O)c1cn(C2CC2)c2cc(N3CCNCC3)c(F)cc2c1=O` [CIPROFLOXACIN]: the values for the MIC50 in the test on Escherichia coli [1] and in the test on Escherichia coli [3] were at most 0.5 µg/mL and above 2 µg/mL, respectively. For the same compound, the MIC90 against Escherichia coli [1] and against Escherichia coli [3] was above 2 µg/mL in each case. Also, the MIC against Escherichia coli [5] was 1020 µg/mL (≈ 3090 µM); in the test with Escherichia coli [7], at most 0.125 µg/mL; in the test with Escherichia coli [8], at most 0.125 µg/mL; in the test with Escherichia coli [9] it was at most 0.125 µg/mL; against Escherichia coli [10] it was 256 µg/mL (≈ 773 µM); with Escherichia coli [11] it was at most 0.125 µg/mL. Moreover, the Activity in the test with Escherichia coli [2] is 98%; in the test on Escherichia coli [4], 33%.

Turning to `C[C@@H](O)[C@H]1C(=O)N2C(C(=O)O)=C(SCCNC=N)C[C@H]12` [IMIPENEM ANHYDROUS], the MIC50 against Escherichia coli [1] and in the test on Escherichia coli [3] was at most 0.5 µg/mL each time. In addition, the MIC90 with Escherichia coli [1] and with Escherichia coli [3] was at most 0.5 µg/mL throughout. The MIC in the test with Escherichia coli [5] is 0.25 µg/mL (≈ 0.835 µM); against Escherichia coli [6] it was 0.125 µg/mL (≈ 0.418 µM); with Escherichia coli [9] it was 0.5 µg/mL (≈ 1.67 µM); in the test on Escherichia coli [10], at most 0.06 µg/mL; in the test on Escherichia coli [11], 0.125 µg/mL (≈ 0.418 µM). Further, the Activity in the test on Escherichia coli [2] and in the test on Escherichia coli [4] was 0% in each case.

`CC1COc2c(N3CCN(C)CC3)c(F)cc3c(=O)c(C(=O)O)cn1c23` (stereo not given) [OFLOXACIN]: the MIC50 in the test with Escherichia coli [1] was at most 0.5 µg/mL; in the test on Escherichia coli [3] it was above 4 µg/mL. The MIC90 against Escherichia coli [1] and against Escherichia coli [3] was above 4 µg/mL each time. For the same compound, the Activity is given as 98% in the test with Escherichia coli [2] and 33% with Escherichia coli [4].

`COc1cc(Cc2cnc(N)nc2N)cc(OC)c1OC` [TRIMETHOPRIM]: the MIC is at most 0.125 µg/mL against Escherichia coli [5]; 0.25 µg/mL (≈ 0.861 µM) against Escherichia coli [6]; at most 0.125 µg/mL against Escherichia coli [7]; at most 0.125 µg/mL in the test with Escherichia coli [8]; above 64 µg/mL in the test on Escherichia coli [9]; 64 µg/mL (≈ 220 µM) against Escherichia coli [10]. In the test with Escherichia coli [11], the MIC was at most 0.125 µg/mL.

Turning to `CCN1CCN(C(=O)N[C@@H](C(=O)N[C@@H]2C(=O)N3[C@@H]2SC(C)(C)[C@@H]3C(=O)O)c2ccccc2)C(=O)C1=O` [PIPERACILLIN], the MIC50 against Escherichia coli [1] and with Escherichia coli [3] was above 64 µg/mL in each case. The MIC90 against Escherichia coli [1] and with Escherichia coli [3] was above 64 µg/mL in each case. Besides, the MIC with Escherichia coli [5] is above 512 µg/mL; against Escherichia coli [6] it was above 512 µg/mL; with Escherichia coli [7], 2 µg/mL (≈ 3.86 µM); in the test with Escherichia coli [8], 512 µg/mL (≈ 989 µM); with Escherichia coli [9], 256 µg/mL (≈ 495 µM); against Escherichia coli [10], 256 µg/mL (≈ 495 µM). The compound also displayed an MIC against Escherichia coli [11] of 512 µg/mL (≈ 989 µM). The Activity with Escherichia coli [2] and in the test with Escherichia coli [4] was 100% throughout.

`CC1(C)S[C@@H]2[C@H](/N=C\N3CCCCCC3)C(=O)N2[C@H]1C(=O)O`: the MIC against Escherichia coli [5] stood at 2 µg/mL (≈ 6.15 µM); against Escherichia coli [6] it was 2 µg/mL (≈ 6.15 µM); in the test on Escherichia coli [7] it was 0.125 µg/mL (≈ 0.384 µM); against Escherichia coli [8], 2 µg/mL (≈ 6.15 µM); against Escherichia coli [9], 0.5 µg/mL (≈ 1.54 µM); against Escherichia coli [10], 1 µg/mL (≈ 3.07 µM). This compound gave an MIC in the test on Escherichia coli [11] of 0.5 µg/mL (≈ 1.54 µM).

As to `C[C@@H](O)[C@H]1C(=O)N2C(C(=O)O)=C(S[C@@H]3CN[C@H](C(=O)N(C)C)C3)[C@H](C)[C@H]12` [MEROPENEM], the MIC50 against Escherichia coli [1] and with Escherichia coli [3] was at most 1 µg/mL throughout. In addition, the MIC90 against Escherichia coli [1] and against Escherichia coli [3] was at most 1 µg/mL each time. For the same compound, the Activity with Escherichia coli [2] and in the test with Escherichia coli [4] was 0% each time.

Turning to `CO/N=C(\C(=O)N[C@@H]1C(=O)N2C(C(=O)O)=C(CSc3nc(=O)c(O)nn3C)CS[C@H]12)c1csc(N)n1` (stereo in doubt) [CEFTRIAXONE], the MIC50 with Escherichia coli [1] and with Escherichia coli [3] was above 32 µg/mL throughout. Besides, the MIC90 against Escherichia coli [1] and against Escherichia coli [3] was above 32 µg/mL in each case. Besides, the MIC is above 512 µg/mL with Escherichia coli [5]; 256 µg/mL (≈ 462 µM) in the test with Escherichia coli [6]; 0.03 µg/mL (≈ 0.0541 µM) against Escherichia coli [7]; 256 µg/mL (≈ 462 µM) with Escherichia coli [8]; 32 µg/mL (≈ 57.7 µM) in the test on Escherichia coli [9]; 32 µg/mL (≈ 57.7 µM) against Escherichia coli [10]. This compound had an MIC against Escherichia coli [11] of 64 µg/mL (≈ 115 µM). Besides, the Activity in the test on Escherichia coli [2] and with Escherichia coli [4] was 100% each time.

Consider `CC(=O)OCC1=C(C(=O)O)N2C(=O)[C@@H](NC(=O)Cc3cccs3)[C@H]2SC1` [CEPHALOTHIN], for which the MIC50 in the test with Escherichia coli [1] and in the test with Escherichia coli [3] was above 16 µg/mL throughout. The MIC90 in the test with Escherichia coli [1] and with Escherichia coli [3] was above 16 µg/mL in each case. For the same compound, the MIC in the test with Escherichia coli [5] is above 1020 µg/mL; against Escherichia coli [6], above 1020 µg/mL; against Escherichia coli [7], 8 µg/mL (≈ 20.2 µM); with Escherichia coli [8], above 1020 µg/mL; in the test on Escherichia coli [9] it was 1020 µg/mL (≈ 2580 µM); with Escherichia coli [10], above 1020 µg/mL. Also, the MIC in the test on Escherichia coli [11] was above 1020 µg/mL. In addition, the Activity with Escherichia coli [2] and in the test on Escherichia coli [4] was 100% in each case.

For `CO/N=C(\C(=O)N[C@@H]1C(=O)N2C(C(=O)O)=C(COC(N)=O)CS[C@H]12)c1ccco1` [CEFUROXIME], the MIC50 against Escherichia coli [1] and against Escherichia coli [3] was above 16 µg/mL throughout. The MIC90 against Escherichia coli [1] and against Escherichia coli [3] was above 16 µg/mL each time. Further, the MIC in the test with Escherichia coli [5] was above 256 µg/mL; against Escherichia coli [6] it was above 256 µg/mL; against Escherichia coli [7] it was 4 µg/mL (≈ 9.43 µM); in the test on Escherichia coli [8] it was above 256 µg/mL; with Escherichia coli [9], above 256 µg/mL; with Escherichia coli [10], above 256 µg/mL. For the same compound, the MIC in the test with Escherichia coli [11] was above 256 µg/mL. For the same compound, the Activity in the test on Escherichia coli [2] and with Escherichia coli [4] was 100% in each case.

Regarding `CC1(C)S[C@@H]2[C@H](NC(=O)[C@H](N)c3ccc(O)cc3)C(=O)N2[C@H]1C(=O)O` [AMOXICILLIN], the MIC in the test on Escherichia coli [5] was above 4100 µg/mL; against Escherichia coli [6], above 4100 µg/mL; against Escherichia coli [7], 8 µg/mL (≈ 21.9 µM); against Escherichia coli [8], above 4100 µg/mL; in the test on Escherichia coli [9], above 4100 µg/mL; in the test with Escherichia coli [10], above 4100 µg/mL. Further, the MIC with Escherichia coli [11] was above 4100 µg/mL.

`Cc1nnc(SCC2=C(C(=O)O)N3C(=O)[C@@H](NC(=O)Cn4cnnn4)[C@H]3SC2)s1` [CEFAZOLIN]: the MIC50 against Escherichia coli [1] and in the test on Escherichia coli [3] was above 16 µg/mL throughout. Besides, the MIC90 against Escherichia coli [1] and in the test on Escherichia coli [3] was above 16 µg/mL in each case. For the same compound, the Activity with Escherichia coli [2] and in the test on Escherichia coli [4] was 100% each time.
